Measurements as given in patent EP4178959B1, “NITROGEN HETEROCYCLIC CYTOKININ DERIVATIVES, COMPOSITIONS CONTAINING THESE DERIVATIVES AND USE THEREOF” (Univerzita Palackého v Olomouci, priority 2020, dated 2022).

Legend:
[1] = Calcein AM cytotoxicity assay, NIH3T3 cells; details: mouse
Procedure, shortened: (§1)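 Compound concentrations tested in duplicate on normal cell lines using Calcein AM viability read-out; cytotoxicity expressed as IC50 (µmol/L).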

[2] = system: sweet peppers, cucumbers and tomatoes; experiment: Field trials with vegetables, overall; assay type: in vivo; details: 10 - 100 nM
Method: Besides, plants were treated with a commercial fertilizer (type Kristalon) with optimal ratio of N,P,K and micronutrients. Dosage of 2-fluoro-6-[(3-methoxylbenzyl)amino]-9-(tetrahydro-2H-pyran-2-yl)-9H-purine was in the range between 10 - 100 nM, but usually 50 or 100 nM from re-planting to the end of vegetation once a week 500 ml to each plant (Table 10). The application of the compound was performed 1-3 times per week (according to the cultivation system - field or hydroponic). Stock solution was prepared in the concentration range 1-5 µM, then dosing into hydroponic system, watering with fertilizer, or in concentration […] in final fertilizer for use in soil conditions. Number of replicates was 10 / 12 plants from each variant (including control).
In case of cucumbers, fruit weight harvested per plant varied from 99,6 / 110,0 %, number of fruits were 102,3 / 106,8 % compared to control. Fruit weight from 1 plant varied from 100,0 to 124,7 % and number of fruits varied from 92,9 to 143,2 %, compared to control, after application of the tested compound to sweet peppers. In most trials, the size of fruits increased after the application of the tested compound.

Zea mays seedlings = experiment: Effect on development of Zea mays seedlings (hydroponic); assay type: in vivo, Zea mays cv. CELLUX
Method: Maize seeds (Zea mays cv. CELLUX) were imbibed in tap water and germinated on a wetted filter paper. After 3 days, the germinated seedlings were transferred to aerated hydroponic tanks filled with Hoagland's nutrient solution. The plants were grown in an environmental chamber with 16 h light period (250 μE m^-2 s^-1) at 27°C and 8 h dark period at 20°C. Tested compounds diluted in DMSO were added to nutrient solution immediately when seedlings were nested in the tanks or after two additional days of cultivation. Control plants were grown in parallel with addition of corresponding amount of DMSO (up to 0.01%). Root and leaf tissues of ten plants were harvested at different time points after the application of the compounds, immediately frozen in liquid nitrogen and used for cytokinin content and transcript level analysis. Length of primary root and the first leaf were determined with ruler on sets of twelve plants, each cultivated in the independent tank (for every cytokinin application repeated ten times). Dry mass of root system and the aerial part was determined after cutting off the kernel and desiccation in dryer for two days at 60°C. […] Fig. 4) and up to 1 micromolar concentration when more seedlings were in the solution (approx. 50 seedlings per 1 liter; Fig. 5). […] Table 7: […]

[3] = Calcein AM cytotoxicity assay, B10A.4 cells; details: mouse, Cytotoxicity IC50, B10A.4, first column headed B10A.4
Procedure, shortened: as §1

excised wheat leaf tips = experiment: Senescence inhibition on winter wheat leaf segments (chlorophyll retention); design: species or system Triticum aestivum cv. Hereward; details: Triticum aestivum, foliar; retention of chlorophyll in excised wheat leaf tips, 96 h in the dark, at concentration with highest activity; read-out: Activity (%) [10^-4mol.l^-1 KTHP = 100%]
Procedure, shortened: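 First-leaf tips (~35 mm; five tips, 100 mg) were cut from 7-day wheat seedlings (cv. Hereward; 25 °C, 16/8 h light). Their basal ends stood in compound solutions made from DMSO stock brought to 10^-3 M with water.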

[4] = Calcein AM cytotoxicity assay, BJ cells; details: human
Procedure, shortened: as §1

Arabidopsis thaliana [5] = experiment: Effect on the root proliferation of Arabidopsis thaliana; assay type: in vivo, Arabidopsis thaliana (ecotype Columbia)
Method: Arabidopsis thaliana seeds (ecotype Columbia) were sterilized with 70% ethanol and 0.1% Triton X-100 and then washed with 70% ethanol containing 0.01% Triton X-100. Then the seeds were transferred to vertical square petri dishes (11 seeds per dish) on a solid medium consisting of MS (2.15 g/l), MES (0.5 g/l), sucrose (1 g/l), agar (11 g/l), buffered to pH 5.8, and various concentrations of tested compounds. The compounds were dissolved in DMSO, thus 0.05% DMSO was used as a control solution. After incubation for 3 days in darkness at 4°C, the seeds were germinated and grown in an environmental chamber (fluorescence light intensity 150 µE m^-2 s^-1, humidity 55%, 16 h day/8 h night, 22°C). […] The number of lateral roots was scored under a stereomicroscope. […] In addition, compounds with tetrahydropyranyl protection at N9 slightly increase the number of emerged lateral roots (Fig 3C). […] Table 6: […]

Arabidopsis thaliana [6] = experiment: Arabidopsis root growth inhibition test; assay type: in vivo, Arabidopsis thaliana (ecotype Columbia); details: for Primary root length 7-d, WT = 100%: 7-d-old plants
Method: Arabidopsis thaliana seeds (ecotype Columbia) were sterilized with 70% ethanol and 0.1% Triton X-100 and then washed 4 times with sterile water. The seeds were transferred to Petri dishes on a solid medium consisting of MS (2.2 g l^-1), sucrose (10 g l^-1), agar (8 g l^-1), and supplemented with cytokinins or DMSO control (0.1% DMSO). After incubation for 3 days in darkness at 4°C, the seeds were germinated and grown horizontally in an environmental chamber at 22/20 °C under an 8 h light (120 µmol photons m^-2 s^-1)/16 h dark cycle for 4 days. 7-d-old seedling were used for measurements of the primary root length. At least 35 plants were used for each treatment and each treatment was repeated in at least 5 individual Petri dishes. The length of the primary root was evaluated using Scion Image software (Scion Corporation, Frederick, MD, USA). All measured parameters were statistically evaluated between untreated and treated plants according to Student's unpaired t-test. […] Tab. Inhibition of the primary root growth in 7-d-old Arabidopsis plants. 100% = WT plants, DMSO treated.

[7] = at concentration with highest activity

COc1cccc(CNc2nc(F)nc3c2ncn3C2CCCCO2)c1 (stereo not shown) [Compound 67, 2-Fluoro-6-[(3-methoxybenzyl)amino]-9-(tetrahydro-2H-pyran-2-yl)-9H-purine]
IC50 at 72 h [1]: > 167 µM
effect on fertility term elongation of vegetables, number of fruits, protection against abiotic stress (in words) [2]: positive effect
Root dry mass (%) [4 x 10^-8 mol.l^-1 Kin = 100%] (Zea mays seedlings; [7]): 261.2 (± 20) %
Shoot dry mass (%) [10^-6 mol.l^-1 Kin = 100%] (Zea mays seedlings; [7]): 127.6 (± 9) %
Concentration with highest activity (Zea mays seedlings; root dry mass): 10^-7 mol.1^-1
effect on cell division and organ growth (in words) (Zea mays seedlings; root system and aerial part of seedlings): Positive effect
Concentration with highest activity (Zea mays seedlings; shoot dry mass): 10^-6 mol.1^-1
IC50 at 72 h [3]: > 167 µM
Emax (excised wheat leaf tips): 195%
IC50 at 72 h [4]: > 167 µM
effect on elongation of primary root (in words) (Arabidopsis thaliana [5]; MS media, range of concentration 0.04 to 5 µM): does not have negative effect on elongation of primary root
Concentration with highest activity (Arabidopsis thaliana [5]; number of lateral roots): 10^-5 mol.l^-1
root growth inhibition (in words) (Arabidopsis thaliana [6]; compared to WT, 7-d-old seedlings): did not cause significant root inhibition
Primary root length 7-d, WT = 100% (Arabidopsis thaliana [6]; tested concentration 0.04 µmol.l^-1): 96.9 (±2.4) %
Primary root length 7-d, WT = 100% (Arabidopsis thaliana [6]; tested concentration 1 µmol.l^-1): 50.3 (±1.1) %
Primary root length 7-d, WT = 100% (Arabidopsis thaliana [6]; tested concentration 25 µmol.l^-1): 34.9 (±2.1) %
